Reference: patent publication US11679168B2, “Caspase-3-triggered molecular self-assembling PET probes and uses thereof” (The Board of Trustees of the Leland Stanford Junior …, priority 2018, dated 2023)
Peptide text beside a SMILES is read from it. * marks the point of attachment. Cbz = O=C(OCc1ccccc1)*; CH2F = FC*

Key:
[1] = Condensation kinetics of aminothiols with CBT (HPLC assay); format: physicochemical; conditions: substituted cysteine analogues with CBT, FIG. 50B
Method: General Methods for Measuring Kinetics of Condensation Reactions Between Aromatic Nitriles and Aminothiols: The 2nd order rate constants for condensation reactions between aromatic nitriles and aminothiols were measured by using HPLC assays. To solutions of aromatic nitriles (100 μM) in phosphate buffered saline (PBS) (1×, pH=7.4) were added aminothiol (1.0 equiv.), TCEP (2.0 equiv.) and NaHCO3 (3 equiv.). The reaction solutions were kept at room temperature (23° C.) and monitored by HPLC at different time points. The conversion rates were calculated using the peak integrals of aromatic nitriles and the condensation products at 254 nm. Based on 2nd order reaction law, 1/[aromatic nitrile] was plotted against time and the slope of the linear regression result gives the 2nd order rate constant.

[2] = L-cysteine with CBT; reported in Reference 13; cited from earlier work
[3] = test system: caspase-3 activity in H460 cells; assay: Confocal imaging of cisplatin-treated H460 cells with C-SNAF4-Cy5; format: cell-based, human; conditions: 50 μM
Method: Confocal Microscopy Imaging of Cisplatin-treated H460 Cells With C-SNAF4-Cy5: NCI-H460 cells at 70% confluency were either left naïve or treated with cisplatin (10 μM) for 24 hours. After removal of the medium, cells were incubated with 2 μM C-SNAF4-Cy5 at 37° C. for 24 hours. For the inhibition study, cells were first incubated with pan-caspase inhibitor Z-VAD-fmk (50 μM, 30 min) before incubation with C-SNAF4-Cy5.

caspase-3 = target: T1, caspase-3 (Homo sapiens, UniProt P42574); assay: Nanoaggregation of [19F]-C-SNAT4 after caspase-3 activation (DLS, TEM); format: biochemical
T1 construct: before and after addition of active caspase-3 (Casp3) enzyme; purchased Sigma; host or cells: E. coli
T1 sequence (P42574 29-175 limits assumed): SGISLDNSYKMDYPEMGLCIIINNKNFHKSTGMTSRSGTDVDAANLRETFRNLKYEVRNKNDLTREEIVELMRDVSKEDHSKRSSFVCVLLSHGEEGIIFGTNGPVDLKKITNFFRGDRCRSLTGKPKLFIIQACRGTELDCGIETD
T1 sequence (P42574 176-277 limits assumed): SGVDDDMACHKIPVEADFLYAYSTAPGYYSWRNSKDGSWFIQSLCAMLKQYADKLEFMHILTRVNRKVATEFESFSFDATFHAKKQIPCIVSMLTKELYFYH
Method: FIG. 1C illustrates the TEM images of [^19F]-C-SNAT4 before and after addition of active caspase-3 (Casp3) enzyme. [^19F]-C-SNAT4 (20 μM) was incubated with caspase-3 (2×10^−3U mL^−1, human, recombinant from E. coli, Sigma) in caspase buffer at 37° C. overnight.
FIG. 12 illustrates in vitro validation and nanoaggregation characterization of [^19F]-C-SNAT4. [^19F]-C-SNAT4 and formation of cycl-[^19F]-SNAT4 after [^19F]-C-SNAT4 incubated with caspase-3 were analyzed by (A) HPLC, (B) DLS of [^19F]-C-SNAT4 without and with caspase-3 incubation. [^19F]-C-SNAT4 (20 μM) was incubated with caspase-3 (2×10^−3U mL^−1, human, recombinant from E. coli, Sigma) in caspase buffer (50 mM HEPES, 100 mM NaCl, 1 mM EDTA, 10 mM TCEP, 10% glycerol and 0.1% CHAPS at pH 7.4) at 37° C. overnight.

H460 cells = assay: MTS cell viability assay in H460 cells; format: cell-based, human
Method: (§1) FIG. 13 illustrates cellular toxicity analysis in H460 and H1299 cells. Cells were incubated at different concentration of [^19F]-C-SNAT4 over 24 hours. The viability of cells was measured using an MTS assay.
FIG. 14 illustrates a Cisplatin dose response curves were assessed in H460 cells by MTS assay. The curves generated by GraphPad Prism software.
FIG. 36A illustrates the toxicity of C-SNAF4-Cy5 in heathy and apoptotic NCI-H460 measured with MTS assay (37° C., 24 h) in heathy H460 cells.
FIG. 36B illustrates the toxicity of C-SNAF4-Cy5 in H460 cells treated with cisplatin (1 μM, 24 hours) followed by incubation with C-SNAF4-Cy5 (37° C., 24 h).
Cell study: All cell lines were assessed to be pathogen-free prior to use in this study. […] Cell viability was assessed with CellTiter 96.RM AQueous One Solution Cell Proliferation Assay (MTS) kit from Promega (Madison, Wis., USA). […] After 60 min of incubation at 37° C., the absorbance was read at 490 nm with a 96 well plate reader from BMG LABTECH GmbH (Ortenberg, Germany).

H1299 cells = assay: MTS cell viability assay in H1299 cells; format: cell-based, human; conditions: H1299, up to 100 μM, 24 hours
Method: as §1
Cell study: All cell lines were assessed to be pathogen-free prior to use in this study. Human H460 and H1299 lung adenocarcinoma cells non-small cell lung cancer H460 (ATCC) and H1299 (ATCC) were cultured in Dulbecco's modified Eagle's medium (DMEM) (Invitrogen), supplement with 10% v/v fetal bovine serum (Life Technologies Inc.) and 1% v/v penicillin-streptomycin (100 IU/ml, […]; Life Technologies Inc.) at 37° C. in a humidified atmosphere maintained at 5% CO2. X-radiation was performed with an X-ray generator (0.2 mm Cu and 1 mm Al filter, 150 kV, Hitachi). The irradiation was carried out at room temperature at a dose rate of 0.2 Gy/min. Cell viability was assessed with CellTiter 96.RM AQueous One Solution Cell Proliferation Assay (MTS) kit from Promega (Madison, Wis., USA). Briefly, 100 μl aliquots of the treated or untreated cell suspension were seeded into 96-well polystyrene tissue culture plates and 20 μl of assay reagent was added to each well. After 60 min of incubation at 37° C., the absorbance was read at 490 nm with a 96 well plate reader from BMG LABTECH GmbH (Ortenberg, Germany).

H460 tumor = assay: Caliper measurement of H460 tumor volumes; format: in vivo, mice; conditions: H460, high dose (9 mg/kg every other day x3, i.v.), day 13 after implantation
Method: (§2) FIG. 5B illustrates caliper measurement of H460 and H1299 tumor volumes in saline and drug-treated mice. Measurements are time after cell implantation, with high dose of cisplatin-treated (Intravenous injection, 9 mg/kg every other day for three times) in H460 and in H1299 tumor-bearing mice as arrow indicated (arrow). n=5 for each group.
(§3) Animal model and probe administration: For subcutaneous tumor models, H460 or H1299 (2×10^6 cells in 100 μl of PBS) were injection subcutaneously on the back of female nu/nu nude mice (aged 6 to 8 weeks; Charles River Laboratories). Tumor dimensions were measured periodically using a caliper (by the same researcher), with tumor volumes calculated by the following equation: volume=a×b×c/2, where a, b, and c represent three orthogonal axis of the tumor. Treatment-response analysis was performed 24 h after drug treatment. For all other experiments, animals were culled 26 h after therapy and tissues excised for analysis. For chemotherapy mouse model, tumors were grown to about 150 mm^3, and then treatment that consisted of cisplatin (Sigma-Aldrich; Low dose: 3 mg/kg; high dose: 9 mg/kg) or saline was initiated through intravenous administration, every other day for three times. Total mouse body weight and tumor size were measured every other day. Treat or left untreated. […]

H1299 tumor = assay: Caliper measurement of H1299 tumor volumes; format: in vivo, mice; conditions: H1299, high dose (9 mg/kg every other day x3, i.v.), day 21 after implantation
Method: as §2, §3

Question: With `N[C@@H](CS)C(=O)O` [L-cysteine] as the compound, how does the second-order reaction rate [1] read?
Answer: 3.2 M⁻¹ s⁻¹

Question: And the “2nd order rate constant k” value [2]?
Answer: 2.9 M⁻¹ s⁻¹

Question: Which “effect on C-SNAF4-Cy5 fluorescence” value [3] does the source give for `COC(=O)C[C@H](NC(=O)[C@H](C)NC(=O)[C@@H](NC(=O)OCc1ccccc1)C(C)C)C(=O)CF` [Z-VAD-fmk] (Cbz-Val-Ala-Asp(OMe)-CH2F) here?
Answer: Fluorescence abolishment

Question: For `CCSSCC(NC(=O)C(CC(=O)O)NC(=O)C(NC(=O)C(CCC(=O)O)NC(=O)C(CC(=O)O)NC(C)=O)C(C)C)C(=O)NCC(=O)NC(Cc1cn(CCOCCOCCOCCF)nn1)C(=O)NCc1ccc(C(=O)NCCCOc2cnc(C#N)nc2)cc1` (stereo not drawn) [[^19F]-C-SNAT4], which “average size of nanoparticles (DLS)” value (caspase-3) is on record?
Answer: around 200 nm

Question: And the cytotoxicity (H460 cells; H460, up to 100 μM, 24 hours)?
Answer: no toxicity

Question: What about the cytotoxicity (H1299 cells) of the same compound?
Answer: no toxicity

Question: For `N.N.[Cl][Pt][Cl]` [cisplatin], which IC50 (H460 cells; H460, MTS assay, read-out: half-maximal inhibitory concentration (IC50)) is on record?
Answer: 9.51 µM

Question: What about the tumor volume (H460 tumor) of the same compound?
Answer: 690.8±88.6 mm^3

Question: What about the tumor volume (H1299 tumor) of the same compound?
Answer: 1348.5±356.0 mm^3
